Results on one compound are retold here after patent US20240060990A1, “SPATIAL SIGNALING NETWORKS FOR MULTIPLEXED DRUG RESPONSE MEASUREMENT AND MODELING” (Georgia Tech Research Corporation, priority 2022, published 2024).

Entries after “also recorded” stand apart in the source; their conditions may differ.

For assay [1], the system named is PC9 cells. The assay can be described thus: RapMIF pixel clustering and spatial signaling network. The class given is cell-based, human. From the text:
Pixel clustering: Pixel phenotypes were clustered in a two-step clustering pipeline (FIG. 6A). From each pixel location within the cell segmented region, the intensity value of each marker expression was extracted. The resulting feature matrix consisted of n rows of a total number of pixels and p columns equal to the number of markers. Each column of the feature matrix was min-max normalized. Then to filter out the background, each pixel location (row in the matrix) with all markers intensity lower than 0.3 was considered as background and dropped from the feature matrix. The cut-off of 0.3 was determined empirically so noise was filtered out of the cell segmented region. The feature matrix was first clustered using the K-Means algorithm with a high number of clusters (k=60). Then, the mean expression per cluster was calculated and the cluster was merged based on hierarchical clustering on the cosine similarity of the mean expression using the average linkage method with a tolerance of 0.2 of the maximum distance between clusters. The latent feature space was obtained using Uniform manifold approximation and projection (UMAP) and cluster labels were visualized by assigning each cluster color and reprojected on the UMAP embedding. A Heatmap of the mean expression level of marker per cluster was generated to show the variation of cluster phenotype.
Spatial signaling network: The network representation of spatial signaling was represented using the spatial information of pixel clustering. Each cluster was represented by a node with node size in the network proportional to the number of pixels in the corresponding cluster. For each cluster, the distribution of the neighbor cluster was calculated by looking at the 2-hop neighbor's cluster of all pixels in the cluster. The edge color represented low (blue) to high (red) neighboring probability between two clusters.

Another assay deals with p-ERK(T202/Y204). Description: p-ERK immunofluorescence in HCC827 cells. As to conditions: 100 nM. The format is cell-based, human. On the procedure:
(§1) Following that, the cells were then fixed and permeabilized with 1.6% formaldehyde in 1×PBS for 10 minutes at RT and 0.5% Triton X-100 for 10 minutes at RT, respectively. The cells were then blocked using a cell staining medium (CSM) containing 0.5% BSA, and 0.02% Sodium Azide in PBS. […] HCC827 cells were stained with p-ERK overnight followed by 1-hour incubation of secondary antibodies at RT, and 10 mins DAPI staining. The cells were then imaged at 40× magnification, and the intensity levels were analyzed. […] The coverslip was mounted to an acrylic holder for multiple cycles of staining.

The next assay has as its system p-EGFR (Y1173). As to conditions: PC9 cells; cited from earlier work.
For another assay, the system named is Bim/Tom20. Description: RapMPI (multiplexed PLA) PPI counts in HCC827 cells, 9 PPI panel. The format is cell-based, human. The conditions noted are these: 12 hours, 9 PPI dataset. On the procedure: as §1
(§2) RapMPI on cell cultures: For single color detection, each coverslip prepared with cells was stained with multiple PPIs with one PPI per cycle. The cells were fixed, permeabilized, and then ready for the following staining steps: 1) block the sample with Duolink blocking solution; 2) incubate it with one pair of proteins, conjugated to one PLUS and one MINUS oligonucleotide at 4° C. overnight.
(§3) For multicolor detection, after permeabilization, the cells underwent the following steps: 1) block the sample with Duolink blocking solution; 2) incubate it with two pair of proteins, conjugated to one pair of oligonucleotides at 4° C. overnight. […] After imaging, the samples were incubated with DNase at a 1:50 dilution rate for 4 hours at RT, followed by 3 times 30% formamide washes and 3 times 1×PBS washes.
(§4) PPI detection: PPI signals were detected using a custom algorithm leveraging a traditional image processing pipeline. More specifically, each PPI image was preprocessed as followed: images were first transformed using a top-hat filter of size 3 pixels to reduce the noise around PPI signals, then Laplacian of Gaussian images was used to detect bright local maxima as PPI signals. In 3D images, double detection of PPI was filtered out at the same position in consecutive Z stacks. After detecting all the PPI locations in 3D, PPI was observed within a 2.5-pixel radius (0.045 um) by creating a PPI neighborhood graph of radius threshold 2.5 pixels and getting all connected components in the graph. Finally, the mean position of the unique connected components in the graph was extracted as identified unique PPI signals in 3D.

The next assay has as its system NF-κB/p-p90RSK. The description is as above. The class given is cell-based, human. The conditions noted are these: 12 hours, 9 PPI dataset. On the procedure: as §1, §2, §3, §4
The test system of another assay is sox2/oct4. Described as above. The class given is cell-based, human. As to conditions: 12 hours, 9 PPI dataset. On the procedure:
as §1, §2, §3, §4

The subject of the next assay is cyclin D1/CDK4. The assay is described as above. The class given is cell-based, human. As to conditions: 12 hours, 9 PPI dataset. On the procedure: as §1, §2, §3, §4
A further assay deals with Mcl-1/Bak. The conditions noted are these: HCC827 cells, 100 nM, 12 h, 5 PPI dataset. On the procedure:
as §1, §2
PPI detection: PPI signals were detected using a custom algorithm leveraging a traditional image processing pipeline. More specifically, each PPI image was preprocessed as followed: images were first transformed using a top-hat filter of size 3 pixels to reduce the noise around PPI signals, then Laplacian of Gaussian images was used to detect bright local maxima as PPI signals. […]

The next assay has as its system p-EGFR (Tyr1086). Description: RapMIF multiplexed immunofluorescence in PC9 cells, p-EGFR. The class given is cell-based, human. As to conditions: 40 nM. On the procedure: Following that, the cells were then fixed and permeabilized with 1.6% formaldehyde in 1×PBS for 10 minutes at RT and 0.5% Triton X-100 for 10 minutes at RT, respectively (FIG. 10A). The cells were then blocked using a cell staining medium (CSM) containing […]. […] PC9 cells were stained with p-EGFR and β-tubulin overnight followed by 1-hour incubation of secondary antibodies at RT, and 15 mins DAPI staining. The cells were then imaged at 40× magnification, and the cell number was analyzed using ImageJ. […] The coverslip was mounted to an acrylic holder for multiple cycles of staining.

The subject of a further assay is p-ERK. The conditions noted are these: up to 24 hours; cited from earlier work.
The test system of a further assay is p-AKT (S473). The conditions noted are these: PC9 cells; cited from earlier work.
Assay [2] deals with PC9 cells. Description: Pearson correlation of single-cell mean marker intensity (RapMIF). The format is cell-based, human. The procedure: Correlation analysis: Correlation between pairs of cells was performed based on the mean intensity level for a pair of markers across all the cells (FIGS. 5A-5F). The correlation between pairwise markers at the cell level was investigated to identify co-expression patterns. For the correlation analysis, the Pearson correlation of pairwise markers at the single-cell level was quantified by using the mean intensity distribution for pairs of markers across the cells (FIGS. 5E-5F, FIGS. 7C-7D). The per cell mean intensity was first extracted for all markers to obtain a vector of mean intensities per cell. The nuclei and cytosol region were then separated for each cell and extracted one vector of mean intensities in the cytosol and another vector of mean intensities in the nuclei per cell. To confirm the bleaching efficiency, the mean intensity correlations of the before and after bleach images was compared. The 3-way correlation was calculated with the adjusted-R^2 value of the linear regression model of one marker predicted by the two others. Specifically, the expression of the maker on the z-axis was predicted by the two markers on the x and y-axis using a 3D scatter plot.

As for `C=CC(=O)Nc1cc(Nc2nccc(-c3cn(C)c4ccccc34)n2)c(OC)cc1N(C)CCN(C)C` [Osimertinib], in the assay with PC9 cells [1], the spatial signaling networks result is “altered”. For the same compound, the “p-β-catenin clusters 12 and 19: degree of node and neighborhoods” value with PC9 cells [1] (40 nM vs control) is “higher degree of a node and more neighborhoods with p-EGFR clusters”. The “distribution of spatial signaling network maps in the cytosol (clusters 0, 1, 2)” value in the assay on PC9 cells [1] (40 nM, 48 hours vs control) was “more dispersed (i.e., less aggregated) distribution in the cytosol; also recorded: more dispersed distribution in the cytosol”. Further, in the assay on PC9 cells [1] (after 40 nM drug treatment), the “proportion (frequency) of cluster 2 (WNT1) and cluster 6 (non-p-β-catenin)” value was “occupied a large proportion (frequency) after drug treatment”. In addition, in the assay on PC9 cells [1] (control vs 40 nM), the “degree of the node of WNT1 in cluster 2” value is given as “reduced from 10 to 4”. For the same compound, the p-ERK level result in the assay with p-ERK(T202/Y204) (6-hour treatment) was “suppressed initially”. Further, the p-ERK level result in the assay with p-ERK(T202/Y204) (12-hour treatment) is on record as “increased”. In addition, the “p-EGFR (Y1173) level” value in the assay with p-EGFR (Y1173) is reported as “decreased the p-EGFR (Y1173) level”. In the assay on Bim/Tom20, the “interactions between Tom20 and Bim” value was “Reduced interactions”. Moreover, in the assay with NF-κB/p-p90RSK, the “NF-κB/p-p90RSK PPI” value is “effectively inhibited”. Moreover, the “sox2/oct4 PPI” value with sox2/oct4 was “downregulation”. The “cyclin D1/CDK4 PPI” value in the assay with cyclin D1/CDK4 is reported as “inhibitory effect”. Also, the “Mcl1/Bak interaction (PPI count), cytoplasm or whole cell” value in the assay with Mcl-1/Bak was “did not exhibit an obvious change”. Besides, the “p-EGFR localization (cell membrane, nucleus)” value in the assay on p-EGFR (Tyr1086) (48 hours) was “mainly localized in the cell membrane and the nuclear p-EGFR expression was relatively low”. Moreover, in the assay on p-EGFR (Tyr1086) (48 hours vs control), the “p-EGFR (Tyr1086) expression level in multiplexed heatmap” value was “remained minimally enhanced; also recorded: remained minimally altered” and the “spatial continuity of p-EGFR distribution on the cell membrane” value is listed as “disrupted spatial continuity in the p-EGFR distributions on the cell membrane”. The “p-ERK, total protein level by western blot” value in the assay on p-ERK is given as “inhibitory role of Osimertinib on p-ERK for up to 24 hours”. For the same compound, the “p-AKT (S473) level” value in the assay with p-AKT (S473) is listed as “effectively inhibit the p-AKT (S473) level”. Besides, in the assay on PC9 cells [2] (40 nM), the “correlation of WNT1 with p-AKT” value is reported as “high correlation with p-AKT in the presence of the drug”. Also, the “correlation between p-EGFR and non-p-β-catenin” value in the assay on PC9 cells [2] (40 nM vs control) is “higher positive correlation between p-EGFR and non-p-β-catenin compared to the control”. Also, the “correlation of p-EGFR with p-AKT (single-cell mean intensity)” value in the assay on PC9 cells [2] (40 nM, 48 hours) is reported as “high correlation to p-AKT after drug treatment”. In addition, the “correlation of WNT1 with p-EGFR” value with PC9 cells [2] (control and 40 nM) was “low correlation with p-EGFR in both conditions”.
